The values that follow come from US9605042B2, “Compositions and methods related to tauopathy” (REGENTS OF THE UNIVERSITY OF MINNESOTA, priority 2012, dated 2017).

Test [1] has as its target T1, caspase-7 (Homo sapiens, UniProt P55210).
T1 sequence (P55210 24-198 limits assumed): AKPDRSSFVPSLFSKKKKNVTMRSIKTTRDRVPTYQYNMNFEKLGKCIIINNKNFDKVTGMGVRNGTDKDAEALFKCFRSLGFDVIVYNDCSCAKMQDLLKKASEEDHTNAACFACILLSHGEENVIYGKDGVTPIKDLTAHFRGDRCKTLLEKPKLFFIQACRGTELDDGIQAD
T1 sequence (P55210 207-303 limits assumed): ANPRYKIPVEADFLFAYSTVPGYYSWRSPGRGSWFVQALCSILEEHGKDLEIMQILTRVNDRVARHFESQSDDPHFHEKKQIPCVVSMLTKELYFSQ
In words: competitive binding assay against caspase-7 (PROMEGA-GLO 2). The conditions noted are these: read-out: K value (caspase-7).

The test system of test [2] is rat hippocampal neurons. Nature of the test: GFP-tau-containing dendritic spines in neurons coexpressing DsRed and GFP-tau. It counts as cell-based. The conditions noted are these: rising concentration of caspase-2 inhibitor. As to the method:
FIG. 15. Images of rat hippocampal neurons coexpressing Dsred and GFP-tagged wild-type tau or tau P301 L mutant. Neurons were treated with caspase-2 inhibitor Ac-VDVAD-CHO (SEQ ID NO:36) or caspase-3 inhibitor Ac-DEVD-CHO (SEQ ID NO:37) for 1 day.
FIG. 16. Quantification of total spines and GFP-tau-containing spines in neurons coexpressing DsRed and GFP-tau.
Based on methods described in Hoover et al., Neuron 2010, dissociated rat hippocampal primary neuron cultures were prepared. Briefly, a 25 mm glass coverslip (thickness, 0.08 mm) was glued over a 22 mm hole in the bottom of a 35 mm tissue culture dish using silicone sealant. Dissociated neuronal cultures from rat hippocampi at P1 were prepared. Neurons were plated onto prepared 35 mm tissue culture dishes at a density of 1×10^6 cells per dish. The age of cultured neurons was counted from the day of plating (1 DIV). Neurons at 7 DIV were transfected using a standard calcium phosphate precipitation method and allowed to grow to maturity (>3 weeks) to be imaged. Neurons were transfected with equivalent concentrations of constructs encoding various tau proteins. The plasmid encoding DsRed was cotransfected with tau constructs to visualize dendritic spines. Recombinant tau protein or TCP35 protein (10 μM) was directly added to culture medium 1 hour before imaging to stimulate neuronal cultures. […]

Test [3] has as its system rTg4510 neurons. Nature of the test: Excitatory synaptic transmission (mEPSCs) in rTg4510 neurons. It counts as cell-based, mouse. The note with it: 20 μM for two hours. As to the method:
FIG. 17. Excitatory Synaptic Transmission in rTg4510 neurons treated with caspase-2 inhibitor. (A) Mean mEPSC amplitudes of rTg4510 neurons (−/− and +/+) treated with 20 μM caspase-2 inhibitor (Ac-VDVAD-CHO; SEQ ID NO:36) for two hours. […] Caspase-2 inhibitor had no effect on rTg4510 (−/−) neurons. (B) Mean mEPSC frequency of rTg4510 neurons (−/− and +/+) treated with 20 μM caspase-2 inhibitor for two hours. Caspase-2 inhibitor had no effect on rTg4510 neurons (−/− or +/+) frequencies.
Miniature excitatory postsynaptic […] (mEPSCs) were recorded at −55 mV in artificial cerebrospinal fluid (aCSF) containing 100 LM AP7 (NMDAR antagonist, Tocris Bioscience, UK), 1 μM TTX (sodium channel blocker, Tocris Bioscience, UK) and 50 μM bicuculline (GABA receptor antagonist, Sigma-Aldrich, St. Louis, Mo.). Electrophysiology experiments were conducted using AXON DIGIDATA 1440A data acquisition system (Molecular Devices, LLC, Sunnyvale, Calif.), AXOPATCH 200B amplifier (Molecular Devices, LLC, Sunnyvale, Calif.), pCLAMP10 software (Molecular Devices. LLC, Sunnyvale, Calif.). Data was analyzed using AxoGraph X software (Berkeley, Calif.).

In test [4] the target is T2, recombinant caspase-2 (Homo sapiens, UniProt P42575).
T2 construct: made in house
T2 sequence (P42575 170-325 limits assumed): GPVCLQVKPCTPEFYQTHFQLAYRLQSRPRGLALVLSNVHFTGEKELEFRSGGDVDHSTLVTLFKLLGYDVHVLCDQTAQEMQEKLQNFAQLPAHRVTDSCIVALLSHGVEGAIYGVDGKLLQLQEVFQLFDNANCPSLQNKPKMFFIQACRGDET
T2 sequence (P42575 348-452 limits assumed): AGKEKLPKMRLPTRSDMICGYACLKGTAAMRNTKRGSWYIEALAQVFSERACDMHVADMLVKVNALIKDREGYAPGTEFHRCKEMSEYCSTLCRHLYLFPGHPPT
Nature of the test: Screening assay: caspase-2-mediated cleavage of Asp314 peptide substrate (LabChip). In kind it is biochemical. The note with it: substrate coincubated with recombinant caspase-2 and inhibitor, fluorescence by LabChip. As to the method: FIG. 10. Caspase-2-mediated cleavage of Asp314 peptide substrate. Synthetic peptide substrate FITC-AHX-GSVQIVYKPVDLSKVTS-COOH (SEQ ID NO:4) was designed based on amino acids 304-320 of tau protein that encompasses Asp314 cleavage site. The peptide substrate was cleaved by coincubating with recombinant caspase-2 and was separated from cleavage product by using LabChip drug discovery system. The fluorescence emitted by FITC group was monitored to measure peptide quantity.
FIG. 11. Caspase inhibitor blocks caspase-2-mediated cleavage of Asp314 peptide substrate. Synthetic peptide substrate was coincubated with recombinant caspase-2 in the presence of general caspase inhibitor z-VAD-fmk. The fluorescence of the substrate peptide was measured by using LabChip drug discovery system.
Unless otherwise stated, chemicals were purchased from Sigma-Aldrich (St. Louis, Mo.). Caspase-2 was made in-house; reference Caspase-2 inhibitor Z-VAD-FMK was purchased from BD Pharmingen (San Diego, Calif.). […]
Plates were screened in a LabChip 3000 (Caliper Life Sciences Inc., Hopkinton, Mass.) with temperature and relative humidity set to 20° C. and 50%. A 12-sipper chip sampled contents from each well and measured the fluorescent intensity of the substrate and product peaks. […] Data were analyzed using Caliper's HTS Well Analyzer software.

The subject of test [5] is recombinant caspases -1, -2, -3, -6, -7, -8, -9, or -10. Nature of the test: Caspase cleavage assay of tau proteins (immunoblot with Tau-13). The note with it: 50 μM inhibitor, 37° C., 2 hours, tau from three sources. In kind it is biochemical. As to the method: FIG. 5. Caspase-2 cleaves tau in vitro, producing a 35 kDa fragment. Recombinant caspases -1, -2, -3, -6, -7, -8, -9, or -10 were incubated at 37° C. for 2 hours with tau proteins derived from three different sources. […] Caspases-1 and -8 may cleave tau proteins near the N-terminus and remove Tau-13 mAb epitopes, preventing detection of proteolytic products. Arrows denote the 35 kDa fragment, and arrowheads denote the tau fragment truncated at D421.
Tau proteins (200 ng immunoprecipitates from rTg[tauP301L]4510 or rTg[tauWT]21221 brain lysates, or 1 μl synthetic proteins generated with TNT T7 Quick Coupled Transcription/Translation System [Promega Corp., Madison, Wis.]) were diluted in assay buffer (20 mM HEPES pH 7.2, 10 mM DTT, 1 mM EDTA, 0.1% CHAPS) to a final volume of 50 μl. One unit of recombinant caspase was added to the reactions in the presence or absence of 50 μM z-VAD-fmk (Calbiochem, EMD Biochemicals, San Diego, Calif.). The reactions were incubated at 37° C. for […] and stopped by adding Laemmli sample buffer (62.5 mM Tris-HCl [pH 6.8], 25% glycerol, 2% SDS, and 0.01% bromophenol blue).

Peptide text beside a SMILES is read from it. * marks the point of attachment. Cbz = O=C(OCc1ccccc1)*; CH2F = FC*

As for `CC(=O)N[C@@H](Cc1ccc(O)cc1)C(=O)N[C@@H](CCCCN)C(=O)N1CCC[C@H]1C(=O)N[C@H](C(=O)N[C@H](C=O)CC(=O)O)C(C)C` [SEQ ID NO:1, Ac-YKPVD-CHO] (Ac-YKPVD-aldehyde), the Ki in test [1] was over 100 µM.
On to Ac-VDVAD-CHO (Ac-VDVAD-aldehyde), for which the “number of spines with tau” value in test [2] was “decreases”. For the same molecule, in test [3], the “mean mEPSC amplitude, rTg4510 (−/−) neurons” value was “no effect” and the “mean mEPSC frequency, rTg4510 neurons (−/− or +/+)” value was “no effect”. The “mean amplitude of AMPA mEPSCs, rTg4510 (+/+) neurons” value in test [3] (compared to vehicle) is on record as “significantly increased”.
As to “benzyloxycarbonyl-Val-Ala-Asp-fluoromcthylketone (Cbz-Val-Ala-Asp-CH2F) [z-VAD-fmk]”, the “caspase-2-mediated cleavage of Asp314 peptide substrate” value in test [4] is on record as “blocks”. Further, the “cleavage of tau proteins by recombinant caspases” value in test [5] is “blocked all cleavage”.
